Reference: the NIST ThermoML archive (doi:10.1021/je060475r)

Key:
[1] = xn = mol fraction of the nth substance listed; details: 101 kPa, Liquid
[2] = 101 kPa, Liquid

c1ccccc1 [benzene] + O=CN1CCOCC1
[1], x1 = 1
Details | mass density [kg/m3] | viscosity [mPa·s]
298.15 K | 873.57 | 0.601
303.15 K | 868.24 | 0.562
313.15 K | 857.34 | 0.493
323.15 K | 846.59 | 0.436
333.15 K | 835.75 | 0.389
343.15 K | 824.98 | 0.354

O=CN1CCOCC1 [N-formylmorpholine] + c1ccccc1
[1]
Details | mass density [kg/m3] | viscosity [mPa·s]
298.15 K, x2 = 0 | 1146.06 | 7.955
298.15 K, x2 = 0.0977 | 1124.83 | 6.078
298.15 K, x2 = 0.198 | 1101.75 | 4.597
298.15 K, x2 = 0.2987 | 1077.06 | 3.524
298.15 K, x2 = 0.4013 | 1051.67 | 2.656
298.15 K, x2 = 0.4983 | 1027.35 | 2.051
298.15 K, x2 = 0.599 | 1001.36 | 1.602
298.15 K, x2 = 0.6999 | 970.18 | 1.234
298.15 K, x2 = 0.802 | 938.33 | 0.96
298.15 K, x2 = 0.8967 | 908.12 | 0.76
303.15 K, x2 = 0 | 1141.7 | 6.877
303.15 K, x2 = 0.0977 | 1120.44 | 5.251
303.15 K, x2 = 0.198 | 1097.28 | 4.028
303.15 K, x2 = 0.2987 | 1072.53 | 3.109
303.15 K, x2 = 0.4013 | 1046.95 | 2.376
303.15 K, x2 = 0.4983 | 1022.6 | 1.858
303.15 K, x2 = 0.599 | 996.29 | 1.456
303.15 K, x2 = 0.6999 | 965.22 | 1.13
303.15 K, x2 = 0.802 | 933.24 | 0.884
303.15 K, x2 = 0.8967 | 902.85 | 0.706
313.15 K, x2 = 0 | 1132.96 | 5.214
313.15 K, x2 = 0.0977 | 1111.6 | 4.059
313.15 K, x2 = 0.198 | 1088.31 | 3.174
313.15 K, x2 = 0.2987 | 1063.41 | 2.492
313.15 K, x2 = 0.4013 | 1037.61 | 1.946
313.15 K, x2 = 0.4983 | 1013.15 | 1.538
313.15 K, x2 = 0.599 | 986.09 | 1.217
313.15 K, x2 = 0.6999 | 955.16 | 0.962
313.15 K, x2 = 0.802 | 922.97 | 0.759
313.15 K, x2 = 0.8967 | 892.39 | 0.613
323.15 K, x2 = 0 | 1124.33 | 4.08
323.15 K, x2 = 0.0977 | 1102.85 | 3.23
323.15 K, x2 = 0.198 | 1079.44 | 2.568
323.15 K, x2 = 0.2987 | 1054.39 | 2.046
323.15 K, x2 = 0.4013 | 1028.33 | 1.614
323.15 K, x2 = 0.4983 | 1003.64 | 1.296
323.15 K, x2 = 0.599 | 975.97 | 1.037
323.15 K, x2 = 0.6999 | 945.02 | 0.826
323.15 K, x2 = 0.802 | 912.7 | 0.66
323.15 K, x2 = 0.8967 | 881.97 | 0.538
333.15 K, x2 = 0 | 1115.63 | 3.284
333.15 K, x2 = 0.0977 | 1094.03 | 2.636
333.15 K, x2 = 0.198 | 1070.44 | 2.124
333.15 K, x2 = 0.2987 | 1045.28 | 1.715
333.15 K, x2 = 0.4013 | 1018.97 | 1.371
333.15 K, x2 = 0.4983 | 993.97 | 1.11
333.15 K, x2 = 0.599 | 966 | 0.898
333.15 K, x2 = 0.6999 | 934.99 | 0.721
333.15 K, x2 = 0.802 | 902.37 | 0.54
333.15 K, x2 = 0.8967 | 871.42 | 0.479
343.15 K, x2 = 0 | 1107.96 | 2.707
343.15 K, x2 = 0.0977 | 1086.23 | 2.201
343.15 K, x2 = 0.198 | 1062.45 | 1.798
343.15 K, x2 = 0.2987 | 1037.1 | 1.466
343.15 K, x2 = 0.4013 | 1010.54 | 1.183
343.15 K, x2 = 0.4983 | 985.32 | 0.966
343.15 K, x2 = 0.599 | 956.77 | 0.787
343.15 K, x2 = 0.6999 | 925.78 | 0.637
343.15 K, x2 = 0.802 | 892.86 | 0.518
343.15 K, x2 = 0.8967 | 861.54 | 0.428

Cc1ccccc1 [toluene] + O=CN1CCOCC1
[1], x1 = 1
Details | mass density [kg/m3] | viscosity [mPa·s]
298.15 K | 861.65 | 0.553
303.15 K | 857.01 | 0.522
313.15 K | 847.63 | 0.467
323.15 K | 838.23 | 0.421
333.15 K | 828.71 | 0.381
343.15 K | 819.86 | 0.349
353.15 K | 809.68 | 0.321

Cc1ccccc1 [toluene]
[2]
Details | mass density [kg/m3] | viscosity [mPa·s]
298.15 K | 861.65 | 0.553
303.15 K | 857.01 | 0.522
313.15 K | 847.63 | 0.467
323.15 K | 838.23 | 0.421
333.15 K | 828.71 | 0.381
343.15 K | 819.86 | 0.349
353.15 K | 809.68 | 0.321

O=CN1CCOCC1 [N-formylmorpholine]
[2]
Details | mass density [kg/m3] | viscosity [mPa·s]
298.15 K | 1146.06 | 7.955
303.15 K | 1141.7 | 6.877
313.15 K | 1132.96 | 5.214
323.15 K | 1124.33 | 4.08
333.15 K | 1115.63 | 3.284
343.15 K | 1107.96 | 2.707
353.15 K | 1098.76 | 2.274

c1ccccc1 [benzene]
[2]
Details | mass density [kg/m3] | viscosity [mPa·s]
298.15 K | 873.57 | 0.601
303.15 K | 868.24 | 0.562
313.15 K | 857.34 | 0.493
323.15 K | 846.59 | 0.436
333.15 K | 835.75 | 0.389
343.15 K | 824.98 | 0.354
